Experiments:
CYP2C8 = target: T1, CYP2C8 (Homo sapiens, UniProt P10632); test: Oxidation by recombinant human CYP2C8; type: in vitro ADME; settings: 100 pmol/mL, 5 μmol/L, 30 min, NADPH
T1 construct: purchased BD Gentest (Woburn, MA); host or cells: baculovirus-infected insect cells
Source text: (§1) Recombinant human CYPs (Supersomes™; BD Gentes, Woburn, MA: CYP1A1, CYP1A2, CYP2A6, CYP2B6, CYP2C8, CYP2C9, CYP2C18, CYP2C19, CYP2D6, CYP2E1, CYP3A4 and CYP3A5), FMOs (Supersomes™: FMO1, FMO3, FMO5), MAOs (Supersomes™: MAO-A and MAO-B), and UGTs (Supersomes™: UGT1A1, UGT1A3, UGT1A4, UGT1A6, UGT1A7, UGT1A8, UGT1A9, UGT1A10, UGT2B4, UGT2B7, UGT2B15, and UGT2B17) expressed in baculovirus-infected insect cells and control microsomes from insect cells infected with wild-type baculovirus were all obtained from BD Gentest (Woburn, MA). […]
(§2) In human liver microsomes and recombinant isoforms, the percentage of metabolism was determined on the basis of unchanged drug disappearance, using the following equation [drawing 1] where UDt = 30 min represents the unchanged drug peak area after a 30-min incubation period and UDt = 0, the unchanged drug peak area at t = 0. […]
(§3) Figure 5 Contribution of individual CYPs, FMOs and MAOs to the oxidation of dronedarone and its metabolites. […] Unchanged drugs were quantified by LC/MS-MS relative to the synthetic references as described in Materials and Methods. Data are expressed as the percentage of oxidation.

MAO-B = target: T2, MAO-B (Homo sapiens, UniProt P27338); test: Oxidation by recombinant human MAO-B; type: in vitro ADME; settings: 1 mg/mL, 5 μmol/L, 30 min, no cofactor
T2 construct: purchased BD Gentest (Woburn, MA); host or cells: baculovirus-infected insect cells
Source text: as §1, §2, §3

[1] = design: method as in Touboul et al. [2003]; Wadhani et al. [2006]; settings: 400-mg twice daily, ref Touboul et al. [2003]; Wadhani et al. [2006]; cited from earlier work
UGT2B15 = target: T3, UGT2B15 (Homo sapiens, UniProt P54855); test: Glucuronidation by recombinant human UGT2B15; type: in vitro ADME; settings: 1 mg/mL, 5 μmol/L, 30 min, UDPGA
T3 construct: purchased BD Gentest (Woburn, MA); host or cells: baculovirus-infected insect cells
Source text: Recombinant human CYPs (Supersomes™; BD Gentes, Woburn, MA: CYP1A1, CYP1A2, CYP2A6, CYP2B6, CYP2C8, CYP2C9, CYP2C18, CYP2C19, CYP2D6, CYP2E1, CYP3A4 and CYP3A5), FMOs (Supersomes™: FMO1, FMO3, FMO5), MAOs (Supersomes™: MAO-A and MAO-B), and UGTs (Supersomes™: UGT1A1, UGT1A3, UGT1A4, UGT1A6, UGT1A7, UGT1A8, UGT1A9, UGT1A10, UGT2B4, UGT2B7, UGT2B15, and UGT2B17) expressed in baculovirus-infected insect cells and control microsomes from insect cells infected with wild-type baculovirus were all obtained from BD Gentest (Woburn, MA).
For glucuronidation pathways, the assay mixture was composed of human liver microsomes (2 mg·mL^−1) or microsomes of baculovirus-infected cells expressing human UGTs (1 mg·mL^−1), uridine 5′-diphosphoglucuronic acid (UDPGA) (3 mmol/L), 100 mmol/L Tris HCl (pH 7.4) containing 5 mmol/L MgCl2 and 5 μmol/L of the investigated compound dissolved in DMSO in a final volume of 500 μL. The final concentration of DMSO in the reaction mixture was less than 1% (v/v). […]
Figure 7 Contribution of individual UGTs to the glucuronidation of propanoic acid-dronedarone and phenol-dronedarone. […] Unchanged drugs were quantified by LC/MS-MS relative to the synthetic references as described in Materials and Methods. Data are expressed as the percentage of glucuronidation.

T1 sequence (P10632 whole entry): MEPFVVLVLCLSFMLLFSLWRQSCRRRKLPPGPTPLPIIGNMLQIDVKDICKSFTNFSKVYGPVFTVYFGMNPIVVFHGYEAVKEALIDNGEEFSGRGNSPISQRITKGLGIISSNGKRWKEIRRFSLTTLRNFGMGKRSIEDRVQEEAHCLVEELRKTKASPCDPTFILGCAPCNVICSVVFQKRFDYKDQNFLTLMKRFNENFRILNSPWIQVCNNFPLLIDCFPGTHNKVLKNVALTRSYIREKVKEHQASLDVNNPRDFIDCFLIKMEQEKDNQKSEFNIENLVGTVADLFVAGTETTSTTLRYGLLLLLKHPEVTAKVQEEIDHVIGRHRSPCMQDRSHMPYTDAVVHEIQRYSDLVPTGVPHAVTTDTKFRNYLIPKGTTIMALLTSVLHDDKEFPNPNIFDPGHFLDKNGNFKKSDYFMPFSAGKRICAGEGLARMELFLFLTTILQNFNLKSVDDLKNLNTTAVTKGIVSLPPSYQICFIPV
T3 sequence (P54855 24-530): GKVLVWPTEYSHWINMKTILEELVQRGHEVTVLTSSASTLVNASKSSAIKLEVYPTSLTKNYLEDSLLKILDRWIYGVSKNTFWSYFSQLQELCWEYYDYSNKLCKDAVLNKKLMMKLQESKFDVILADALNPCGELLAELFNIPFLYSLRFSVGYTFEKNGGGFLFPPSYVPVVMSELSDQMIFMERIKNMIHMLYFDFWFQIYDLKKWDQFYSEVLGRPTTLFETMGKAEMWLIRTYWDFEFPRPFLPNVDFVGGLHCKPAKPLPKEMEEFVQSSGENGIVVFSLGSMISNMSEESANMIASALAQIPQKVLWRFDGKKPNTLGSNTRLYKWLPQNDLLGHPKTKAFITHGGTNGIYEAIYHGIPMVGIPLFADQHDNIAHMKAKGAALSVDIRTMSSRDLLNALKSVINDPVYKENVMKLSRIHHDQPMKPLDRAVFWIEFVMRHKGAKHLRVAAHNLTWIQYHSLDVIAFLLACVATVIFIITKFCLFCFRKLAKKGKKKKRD
T2 sequence (P27338 whole entry): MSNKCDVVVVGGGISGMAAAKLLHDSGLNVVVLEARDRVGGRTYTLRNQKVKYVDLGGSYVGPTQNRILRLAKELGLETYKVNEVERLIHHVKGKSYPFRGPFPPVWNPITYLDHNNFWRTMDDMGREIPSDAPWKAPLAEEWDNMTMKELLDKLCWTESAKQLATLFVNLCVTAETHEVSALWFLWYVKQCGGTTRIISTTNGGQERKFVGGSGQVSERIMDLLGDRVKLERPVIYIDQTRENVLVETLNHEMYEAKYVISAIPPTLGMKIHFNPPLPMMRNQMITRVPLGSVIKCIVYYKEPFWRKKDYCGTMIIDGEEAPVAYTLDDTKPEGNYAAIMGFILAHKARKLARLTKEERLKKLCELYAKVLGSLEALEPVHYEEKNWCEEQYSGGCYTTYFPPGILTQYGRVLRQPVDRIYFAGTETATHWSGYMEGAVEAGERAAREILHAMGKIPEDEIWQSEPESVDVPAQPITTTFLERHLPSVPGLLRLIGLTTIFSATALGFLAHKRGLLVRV

CCCCc1oc2ccc(NS(C)(=O)=O)cc2c1C(=O)c1ccc(OCCC(=O)O)cc1 [Propanoic acid-dronedarone]
Percentage of oxidation (unchanged drug disappearance) by CYP2C8 (CYP2C8): 28%

CCCCNCCCOc1ccc(C(=O)c2c(CCCC)oc3ccc(NS(C)(=O)=O)cc23)cc1 [N-debutyl-dronedarone]
Metabolism by MAO-B (MAO-B): no metabolism occurred

CCCCc1oc2ccc(NS(C)(=O)=O)cc2c1C(=O)c1ccc(OCCCN(CCCC)CCCC)cc1.Cl [Dronedarone, N-(2-Butyl-3-(4-(3-(dibutylamino)propoxy)benzoyl)-5-benzofuranyl)methanesulfonamide, hydrochloride]
Incidence of any QTc interval >500 msec [1]: 7.7% | PR interval increase [1]: 13.4 ms

CCCCc1oc2ccc(NS(C)(=O)=O)cc2c1C(=O)c1ccc(O)cc1 [Phenol-dronedarone]
Glucuronosyl transferase activity of UGT2B15 (UGT2B15): significant glucuronosyl transferase activity
